Literature values as cited in US20060068015A1, “Solid dosage form comprising a fibrate and a statin” (priority 2003, published 2006).
Each block holds one compound with its values, some of them ahead of it.

Columns and labels:
[1] = for solubility in water: water / distilled water

solubility in water [1]: poor water-solubility
SMILES: CC[C@H](C)C(=O)O[C@H]1C[C@@H](C)C=C2C=C[C@H](C)[C@H](CC[C@@H]3C[C@@H](O)CC(=O)O3)[C@H]21 [lovastatin]

systemic availability of HMG-COA reductase inhibitory activity (oral administration): approximately 30%
SMILES: CC(C)c1c(C(=O)Nc2ccccc2)c(-c2ccccc2)c(-c2ccc(F)cc2)n1CC[C@@H](O)C[C@@H](O)CC(=O)O [Atorvastatin]

solubility in water [1]: poor water-solubility
SMILES: O=C(O)C[C@H](O)C[C@H](O)/C=C/c1c(C2CC2)nc2ccccc2c1-c1ccc(F)cc1 [pitavastatin]

elimination half-life (in vivo): about 20 hours
SMILES: CC(C)(Oc1ccc(C(=O)c2ccc(Cl)cc2)cc1)C(=O)O [Fenofibric acid]

solubility in water [1]: poor water-solubility
bioavailability (oral administration): about 50%
SMILES: CC(C)c1nc(N(C)S(C)(=O)=O)nc(-c2ccc(F)cc2)c1/C=C/[C@@H](O)C[C@@H](O)CC(=O)O [Rosuvastatin]

solubility in water [1]: water-soluble
SMILES: CC(C)n1c(/C=C/C(O)CC(O)CC(=O)O)c(-c2ccc(F)cc2)c2ccccc21 (stereo not shown) [fluvastatin]

SMILES: CC[C@H](C)C(=O)O[C@H]1C[C@H](O)C=C2C=C[C@H](C)[C@H](CC[C@@H](O)C[C@@H](O)CC(=O)O)[C@H]21 [Pravastatin]
solubility in water [1]: water-soluble
bioavailability (oral administration): about 30%

SMILES: CC[C@H](C)C(=O)O[C@H]1C[C@H](O)C=C2C=C[C@H](C)[C@H](CC[C@@H](O)C[C@@H](O)CC(=O)[O-])[C@H]21.[Na+] (relative stereo) [Pravastatin sodium, 1-naphthalene-heptanoic acid, 1,2,6,7,8,8a-hexahydro-(beta), (beta),6-trihydroxy-2-methyl-8-(2-methyl-1-oxobutoxy)-, monosodium salt, [1S-[1(alpha)((beta)S*,(beta)S*),2(alpha),6(alpha), 8(beta)(R*),8a(alpha)]]-]
solubility in acetone ([1]; acetone): practically insoluble
solubility in acetonitrile ([1]; acetonitrile): practically insoluble
solubility in chloroform ([1]; chloroform): practically insoluble
solubility in ether ([1]; ether): practically insoluble
